For six molecules, Emax and EC50 results are on record in patent US10988523B2, “Modified lipidated Relaxin B chain peptides and their therapeutic use” (Sanofi, priority 2018, dated 2021).

The target in this assay is T1, RXFP1 (Homo sapiens, UniProt Q9HBX9).
T1 construct: OVCAR5 cells expressing endogenous RXFP1; endogenous in cells; host or cells: OVCAR5 cells
T1 sequence (Q9HBX9 1-757): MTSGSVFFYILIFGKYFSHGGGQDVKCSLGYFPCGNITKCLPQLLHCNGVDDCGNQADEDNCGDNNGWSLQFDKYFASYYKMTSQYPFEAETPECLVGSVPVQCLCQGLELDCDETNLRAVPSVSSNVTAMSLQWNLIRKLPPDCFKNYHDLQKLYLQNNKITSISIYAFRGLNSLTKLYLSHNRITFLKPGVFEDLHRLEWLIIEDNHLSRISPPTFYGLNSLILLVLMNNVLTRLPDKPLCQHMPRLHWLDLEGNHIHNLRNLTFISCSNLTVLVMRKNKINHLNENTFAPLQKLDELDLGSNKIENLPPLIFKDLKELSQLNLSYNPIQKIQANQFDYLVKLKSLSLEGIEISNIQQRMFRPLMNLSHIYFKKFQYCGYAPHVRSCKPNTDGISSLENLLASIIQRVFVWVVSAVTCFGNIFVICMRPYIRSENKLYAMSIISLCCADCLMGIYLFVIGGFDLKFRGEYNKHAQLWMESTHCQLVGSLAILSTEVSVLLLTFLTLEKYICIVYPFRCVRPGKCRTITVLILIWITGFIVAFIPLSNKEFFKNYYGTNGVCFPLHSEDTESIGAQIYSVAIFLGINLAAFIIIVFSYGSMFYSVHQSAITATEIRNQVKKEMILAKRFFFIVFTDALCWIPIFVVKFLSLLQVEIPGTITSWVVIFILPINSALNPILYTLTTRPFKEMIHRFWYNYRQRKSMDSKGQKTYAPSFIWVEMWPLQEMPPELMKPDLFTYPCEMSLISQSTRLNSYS
As to the kind of experiment: OVCAR5 cAMP assay (HTRF), RXFP1 agonist activity. It is filed as cell-based. The conditions noted are these: for Emax: OVCAR-5, maximal cAMP relative to H2-relaxin maximum (100%), read-out: EMax, OVCAR 5 cells (cAMP); for EC50: OVCAR5 cells, cAMP HTRF, read-out: EC50 (nM), OVCAR 5 cells (cAMP). The gist of the method:
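OVCAR5 cells (endogenous RXFP1) pretreated 40 min at 37° C with 1 mM IBMX, then exposed to peptides in serum-free medium for 30 min at 37° C. Lysate cAMP read by HTRF; EC50 from variable-slope sigmoidal fit; Emax as % of H2-relaxin maximal cAMP in same run.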
For orientation: Changes in cAMP serve as a functional read-out for many G protein-coupled receptors.

SMILES strings stand for the structures. *1 amine or outer side, *2 acyl side, *3 side chain or, on linkers, in order; H or OH if unused. Where a SMILES comes first, the peptide text is derived from it. Side-chain parts run from the residue outwards. [ ]: non-standard residue; d: D form. The star is where a group is joined. PEG12 = NCCOCCOCCOCCOCCOCCOCCOCCOCCOCCOCCOCCOCCC(=O)O; Lys(Me3) = C[N+](C)(C)CCCC[C@H](N)C(=O)O; γGlu = O=C(O)[C@H](CCC(=O)[*:2])N[*:1]; Stearoyl = CCCCCCCCCCCCCCCCCC(=O)*; Palmitoyl = CCCCCCCCCCCCCCCC(=O)*; Nle = CCCC[C@H](N)C(=O)O; AEEA = NCCOCCOCC(=O)O; Aib = CC(C)(N)C(=O)O

The term Emax denotes the greatest response seen or fitted, relative to the assay's reference. On to `CCCCCCCCCCCCCCCCCC(=O)N[C@@H](CCC(=O)N[C@@H](CCC(=O)N[C@@H](CCC(=O)NCCOCCOCC(=O)NCCOCCOCC(=O)NCCOCCOCC(=O)NCCCC[C@H](NC(=O)[C@H](CCCCNC(C)=O)NC(=O)[C@H](CCCC[N+](C)(C)C)NC(=O)[C@H](CCCNC(=N)N)NC(=O)C(C)(C)NC(=O)[C@H](CO)NC(=O)[C@H](Cc1c[nH]c2ccccc12)NC(=O)[C@@H](NC(=O)[C@H](CO)NC(=O)[C@H](CCCC)NC(=O)CNC(=O)[C@H](CCC(=O)O)NC(=O)C(C)(C)NC(=O)C(C)(C)NC(=O)[C@@H](NC(=O)[C@H](CCCCNC(C)=O)NC(=O)[C@H](C)NC(=O)[C@H](CCCNC(=N)N)NC(=O)[C@@H](NC(=O)[C@H](CCCCN)NC(=O)[C@H](CCC(=O)O)NC(=O)[C@H](CCCNC(=N)N)NC(=O)CNC(=O)[C@H](CCC(=O)O)NC(=O)[C@H](CC(C)C)NC(C)=O)C(C)C)[C@@H](C)CC)[C@@H](C)O)C(N)=O)C(=O)O)C(=O)O)C(=O)O` [compound 134] (Ac-LEGREKVRAK(Ac)I[Aib][Aib]EG[Nle]STWS[Aib]R[Lys(Me3)]K(Ac)K([AEEA-AEEA-AEEA-γGlu-γGlu-γGlu-Stearoyl])-NH2), for which the Emax stood at 100%.

In general, EC50 refers to the concentration giving half of the maximal effect. With `CCCCCCCCCCCCCCCCCC(=O)N[C@@H](CCC(=O)N[C@@H](CCC(=O)N[C@@H](CCC(=O)NCCOCCOCC(=O)NCCOCCOCC(=O)NCCCC[C@H](NC(=O)[C@H](CCCCN)NC(=O)[C@H](CCCNC(=N)N)NC(=O)C(C)(C)NC(=O)[C@H](CO)NC(=O)[C@H](Cc1c[nH]c2ccccc12)NC(=O)[C@@H](NC(=O)[C@H](CO)NC(=O)[C@H](CCCC)NC(=O)CNC(=O)[C@H](CCC(=O)O)NC(=O)C(C)(C)NC(=O)C(C)(C)NC(=O)[C@@H](NC(=O)[C@H](CCCCNC(C)=O)NC(=O)[C@H](C)NC(=O)[C@H](CCCNC(=N)N)NC(=O)[C@@H](NC(=O)[C@H](CCCCN)NC(=O)[C@H](CCC(=O)O)NC(=O)[C@H](CCCNC(=N)N)NC(=O)CNC(=O)[C@H](CCC(=O)O)NC(=O)[C@H](CC(C)C)NC(C)=O)C(C)C)[C@@H](C)CC)[C@@H](C)O)C(N)=O)C(=O)O)C(=O)O)C(=O)O` [compound 73] (Ac-LEGREKVRAK(Ac)I[Aib][Aib]EG[Nle]STWS[Aib]RKK([AEEA-AEEA-γGlu-γGlu-γGlu-Stearoyl])-NH2), the EC50 is 0.12 nM and the Emax was 90%.

Turning to `CCCCCCCCCCCCCCCCCC(=O)N[C@@H](CCC(=O)N[C@@H](CCC(=O)N[C@@H](CCC(=O)NCCOCCOCC(=O)NCCOCCOCC(=O)NCCOCCOCC(=O)NCCCC[C@H](NC(=O)[C@H](CCCCNC(C)=O)NC(=O)[C@H](CCCCN)NC(=O)[C@H](CCCNC(=N)N)NC(=O)C(C)(C)NC(=O)[C@H](CO)NC(=O)[C@H](Cc1ccc(O)cc1)NC(=O)[C@@H](NC(=O)[C@H](CO)NC(=O)[C@H](CCCC)NC(=O)CNC(=O)[C@H](CCC(=O)O)NC(=O)C(C)(C)NC(=O)C(C)(C)NC(=O)[C@@H](NC(=O)[C@H](CCCCNC(C)=O)NC(=O)[C@H](C)NC(=O)[C@H](CCCNC(=N)N)NC(=O)[C@@H](NC(=O)[C@H](CCCCN)NC(=O)[C@H](CCC(=O)O)NC(=O)[C@H](CCCNC(=N)N)NC(=O)CNC(=O)[C@H](CCC(=O)O)NC(=O)[C@H](CC(C)C)NC(C)=O)C(C)C)[C@@H](C)CC)[C@@H](C)O)C(N)=O)C(=O)O)C(=O)O)C(=O)O` [compound 78] (Ac-LEGREKVRAK(Ac)I[Aib][Aib]EG[Nle]STYS[Aib]RKK(Ac)K([AEEA-AEEA-AEEA-γGlu-γGlu-γGlu-Stearoyl])-NH2), the EC50 is 1.04 nM and the Emax was 73%.

For the molecule `CCCCCCCCCCCCCCCCCC(=O)N[C@@H](CCC(=O)N[C@@H](CCC(=O)N[C@@H](CCC(=O)NCCOCCOCC(=O)NCCOCCOCC(=O)NCCCC[C@H](NC(=O)[C@H](CCCCN)NC(=O)[C@H](CCCCN)NC(=O)[C@H](CCCNC(=N)N)NC(=O)C(C)(C)NC(=O)[C@H](CO)NC(=O)[C@H](Cc1c[nH]c2ccccc12)NC(=O)[C@@H](NC(=O)[C@H](CO)NC(=O)[C@H](CCCC)NC(=O)CNC(=O)[C@H](CCC(=O)O)NC(=O)C(C)(C)NC(=O)C(C)(C)NC(=O)[C@@H](NC(=O)[C@H](CCC(N)=O)NC(=O)C(C)(C)NC(=O)[C@H](CCCNC(=N)N)NC(=O)[C@@H](NC(=O)[C@H](CCCCN)NC(=O)[C@H](CCC(=O)O)NC(=O)[C@H](CCCNC(=N)N)NC(=O)CNC(=O)[C@H](CCC(=O)O)NC(=O)[C@H](CC(C)C)NC(C)=O)C(C)C)[C@@H](C)CC)[C@@H](C)O)C(N)=O)C(=O)O)C(=O)O)C(=O)O` [compound 69] (Ac-LEGREKVR[Aib]QI[Aib][Aib]EG[Nle]STWS[Aib]RKKK([AEEA-AEEA-γGlu-γGlu-γGlu-Stearoyl])-NH2), the Emax was 87%.

For `CCCCCCCCCCCCCCCC(=O)N[C@@H](CCC(=O)N[C@@H](CCC(=O)N[C@@H](CCC(=O)NCCCC[C@H](NC(=O)CCOCCOCCOCCOCCOCCOCCOCCOCCOCCOCCOCCOCCNC(=O)[C@H](CCCCN)NC(=O)[C@H](CCCNC(=N)N)NC(=O)C(C)(C)NC(=O)[C@H](CO)NC(=O)[C@H](Cc1c[nH]c2ccccc12)NC(=O)[C@@H](NC(=O)[C@H](CO)NC(=O)[C@H](CCSC)NC(=O)CNC(=O)[C@H](CCC(=O)O)NC(=O)C(C)(C)NC(=O)C(C)(C)NC(=O)[C@@H](NC(=O)[C@H](CCCCNC(C)=O)NC(=O)[C@H](C)NC(=O)[C@H](CCCNC(=N)N)NC(=O)[C@@H](NC(=O)[C@H](CCCCN)NC(=O)[C@H](CCC(=O)O)NC(=O)[C@H](CCCNC(=N)N)NC(=O)CNC(=O)[C@H](CCC(=O)O)NC(=O)[C@H](CC(C)C)NC(C)=O)C(C)C)[C@@H](C)CC)[C@@H](C)O)C(N)=O)C(=O)O)C(=O)O)C(=O)O` [compound 25] (Ac-LEGREKVRAK(Ac)I[Aib][Aib]EGMSTWS[Aib]RK[PEG12]K([γGlu-γGlu-γGlu-Palmitoyl])-NH2), the EC50 came out at 1.21 nM and the Emax turned out to be 95%.

As for `CCCCCCCCCCCCCCCCCC(=O)NCCCC[C@H](NC(=O)CCOCCOCCOCCOCCOCCOCCOCCOCCOCCOCCOCCOCCNC(=O)[C@H](CCCCNC(C)=O)NC(=O)[C@H](CCCCN)NC(=O)[C@H](CCCNC(=N)N)NC(=O)C(C)(C)NC(=O)[C@H](CO)NC(=O)[C@H](Cc1c[nH]c2ccccc12)NC(=O)[C@@H](NC(=O)[C@H](CO)NC(=O)[C@H](CCCC)NC(=O)CNC(=O)[C@H](CCC(=O)O)NC(=O)C(C)(C)NC(=O)C(C)(C)NC(=O)[C@@H](NC(=O)[C@H](CCC(N)=O)NC(=O)[C@H](C)NC(=O)[C@H](CCCNC(=N)N)NC(=O)[C@@H](NC(=O)[C@H](CCCCN)NC(=O)[C@H](CCC(=O)O)NC(=O)[C@H](CCCNC(=N)N)NC(=O)CNC(=O)[C@H](CCC(=O)O)NC(=O)[C@H](CC(C)C)NC(C)=O)C(C)C)[C@@H](C)CC)[C@@H](C)O)C(N)=O` [compound 21] (Ac-LEGREKVRAQI[Aib][Aib]EG[Nle]STWS[Aib]RKK(Ac)[PEG12]K(Stearoyl)-NH2), the Emax worked out at 88%.
